{
  "source": "ChEMBL document CHEMBL1149423",
  "about": "“Novel phenylamino acetamide derivatives as potent and selective kappa opioid receptor agonists” (Bioorg Med Chem Lett, 2006)",
  "data": [
    {"species": "Rattus norvegicus", "experiment": "Antinociception in rat at 300 ug given intrapaw in late phase formalin-induced flinching assay", "format": "functional", "units": {"Activity": "%"}, "values": [
      {"molecule": "CN(C(=O)CNc1ccccc1)[C@H](CN1CC[C@H](O)C1)c1ccccc1", "Activity": 96.2}
    ]},
    {"system": "Mus musculus", "experiment": "Inhibition of acetic acid-induced writhing in mice after sc administration", "format": "functional", "units": {"ED50": "mg/kg"}, "values": [
      {"molecule": "CN(C(=O)CNc1ccccc1)[C@H](CN1CC[C@H](O)C1)c1ccccc1", "ED50": 0.017}
    ]},
    {"target": "T1, Kappa-type opioid receptor (Homo sapiens, UniProt P41145)", "T1 sequence (P41145 whole entry)": "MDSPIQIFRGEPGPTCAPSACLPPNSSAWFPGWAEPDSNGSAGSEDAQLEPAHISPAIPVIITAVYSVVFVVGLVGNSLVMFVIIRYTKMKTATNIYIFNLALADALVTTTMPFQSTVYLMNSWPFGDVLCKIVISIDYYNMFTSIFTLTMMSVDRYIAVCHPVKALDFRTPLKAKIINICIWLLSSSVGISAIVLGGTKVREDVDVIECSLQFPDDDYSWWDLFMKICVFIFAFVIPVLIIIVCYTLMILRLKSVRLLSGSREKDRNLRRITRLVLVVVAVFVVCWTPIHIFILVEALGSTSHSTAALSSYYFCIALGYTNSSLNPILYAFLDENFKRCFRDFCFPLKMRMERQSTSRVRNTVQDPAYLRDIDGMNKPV", "experiment": "Binding affinity to kappa opioid receptor", "units": {"Ki": "nM"}, "values": [
      {"molecule": "CN(C(=O)CNc1ccc(CNS(C)(=O)=O)cc1)[C@H](CN1CC[C@H](O)C1)c1ccccc1", "Ki": 16},
      {"molecule": "CN(C(=O)CNc1cccc(C#N)c1)[C@H](CN1CC[C@H](O)C1)c1ccccc1", "Ki": 0.5},
      {"molecule": "CN(C(=O)CNc1ccccc1C#N)[C@H](CN1CC[C@H](O)C1)c1ccccc1", "Ki": 0.39},
      {"molecule": "CN(C(=O)CNc1ccc(Cl)c(Cl)c1)[C@H](CN1CC[C@H](O)C1)c1ccccc1", "Ki": 0.11},
      {"molecule": "CN(C(=O)CNc1ccccc1CNS(C)(=O)=O)[C@H](CN1CC[C@H](O)C1)c1ccccc1", "Ki": 0.78},
      {"molecule": "CCCS(=O)(=O)Nc1ccc(NCC(=O)N(C)[C@H](CN2CC[C@H](O)C2)c2ccccc2)cc1", "Ki": 1.5},
      {"molecule": "CC(=O)N(CC(=O)N(C)[C@H](CN1CC[C@H](O)C1)c1ccccc1)c1ccccc1", "Ki": 3.8},
      {"molecule": "CN(C(=O)CNc1ccc(NS(C)(=O)=O)cc1)[C@H](CN1CC[C@H](O)C1)c1ccccc1", "Ki": 5.7},
      {"molecule": "CN(C(=O)CNc1cccc(CNS(C)(=O)=O)c1)[C@H](CN1CC[C@H](O)C1)c1ccccc1", "Ki": 3.9},
      {"molecule": "CN(C(=O)CNc1ccc([N+](=O)[O-])cc1)[C@H](CN1CC[C@H](O)C1)c1ccccc1", "Ki": 0.21},
      {"molecule": "CN(C(=O)CNc1ccc(C#N)cc1)[C@H](CN1CC[C@H](O)C1)c1ccccc1", "Ki": 0.66},
      {"molecule": "CN(CC(=O)N(C)[C@H](CN1CC[C@H](O)C1)c1ccccc1)c1ccc(C#N)cc1", "Ki": 1},
      {"molecule": "CN(CC(=O)N(C)[C@H](CN1CC[C@H](O)C1)c1ccccc1)c1ccccc1", "Ki": 0.32},
      {"molecule": "CN(C(=O)CNc1ccc(C(F)(F)F)cc1)[C@H](CN1CC[C@H](O)C1)c1ccccc1", "Ki": 0.39}
    ]},
    {"target": "T1, Kappa-type opioid receptor", "experiment": "Agonist activity at kappa opioid receptor in a [35S]GTP-gamma-S functional assay", "units": {"EC50": "nM"}, "values": [
      {"molecule": "CN(C(=O)CNc1ccc(CNS(C)(=O)=O)cc1)[C@H](CN1CC[C@H](O)C1)c1ccccc1", "EC50": 24},
      {"molecule": "CN(C(=O)CNc1cccc(C#N)c1)[C@H](CN1CC[C@H](O)C1)c1ccccc1", "EC50": 0.58},
      {"molecule": "CN(C(=O)CNc1ccccc1C#N)[C@H](CN1CC[C@H](O)C1)c1ccccc1", "EC50": 0.42},
      {"molecule": "CN(C(=O)CNc1ccc(Cl)c(Cl)c1)[C@H](CN1CC[C@H](O)C1)c1ccccc1", "EC50": 0.27},
      {"molecule": "CN(C(=O)CNc1ccccc1CNS(C)(=O)=O)[C@H](CN1CC[C@H](O)C1)c1ccccc1", "EC50": 0.52},
      {"molecule": "CCCS(=O)(=O)Nc1ccc(NCC(=O)N(C)[C@H](CN2CC[C@H](O)C2)c2ccccc2)cc1", "EC50": 8.3},
      {"molecule": "CC(=O)N(CC(=O)N(C)[C@H](CN1CC[C@H](O)C1)c1ccccc1)c1ccccc1", "EC50": 7.4},
      {"molecule": "CN(C(=O)CNc1ccc(NS(C)(=O)=O)cc1)[C@H](CN1CC[C@H](O)C1)c1ccccc1", "EC50": 14},
      {"molecule": "CN(C(=O)CNc1cccc(CNS(C)(=O)=O)c1)[C@H](CN1CC[C@H](O)C1)c1ccccc1", "EC50": 4.8},
      {"molecule": "CN(C(=O)CNc1ccc([N+](=O)[O-])cc1)[C@H](CN1CC[C@H](O)C1)c1ccccc1", "EC50": 0.23},
      {"molecule": "CN(C(=O)CNc1ccc(C#N)cc1)[C@H](CN1CC[C@H](O)C1)c1ccccc1", "EC50": 0.49},
      {"molecule": "CN(CC(=O)N(C)[C@H](CN1CC[C@H](O)C1)c1ccccc1)c1ccc(C#N)cc1", "EC50": 2.3},
      {"molecule": "CN(CC(=O)N(C)[C@H](CN1CC[C@H](O)C1)c1ccccc1)c1ccccc1", "EC50": 0.23},
      {"molecule": "CN(C(=O)CNc1ccc(C(F)(F)F)cc1)[C@H](CN1CC[C@H](O)C1)c1ccccc1", "EC50": 0.8}
    ]},
    {"target": "Opioid receptors; mu & kappa (Homo sapiens) (UniProt P41145+P35372)", "sequence (P35372 whole entry, looked up)": "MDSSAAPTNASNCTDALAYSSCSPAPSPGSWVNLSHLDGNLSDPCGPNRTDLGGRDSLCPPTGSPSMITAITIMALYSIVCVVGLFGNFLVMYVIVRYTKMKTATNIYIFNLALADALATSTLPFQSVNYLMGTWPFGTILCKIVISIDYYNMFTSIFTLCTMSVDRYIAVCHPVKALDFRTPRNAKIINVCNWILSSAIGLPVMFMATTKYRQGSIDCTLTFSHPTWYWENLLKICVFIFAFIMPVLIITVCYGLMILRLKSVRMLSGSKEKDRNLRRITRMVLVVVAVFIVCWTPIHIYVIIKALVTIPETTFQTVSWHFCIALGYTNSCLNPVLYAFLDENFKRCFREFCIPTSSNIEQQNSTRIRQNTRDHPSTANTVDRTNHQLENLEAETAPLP", "sequence (P41145 whole entry, looked up)": "as the sequence (P41145 whole entry) above", "experiment": "Selectivity for kappa opioid receptor over mu opioid receptor", "format": "protein assay", "values": [
      {"molecule": "CN(C(=O)CNc1ccc(CNS(C)(=O)=O)cc1)[C@H](CN1CC[C@H](O)C1)c1ccccc1", "Ratio": 81},
      {"molecule": "CN(C(=O)CNc1ccccc1)[C@H](CN1CC[C@H](O)C1)c1ccccc1", "Ratio": 5880},
      {"molecule": "CN(C(=O)CNc1cccc(C#N)c1)[C@H](CN1CC[C@H](O)C1)c1ccccc1", "Ratio": 1140},
      {"molecule": "CN(C(=O)CNc1ccccc1C#N)[C@H](CN1CC[C@H](O)C1)c1ccccc1", "Ratio": 667},
      {"molecule": "CN(C(=O)CNc1ccc(Cl)c(Cl)c1)[C@H](CN1CC[C@H](O)C1)c1ccccc1", "Ratio": 427},
      {"molecule": "CN(C(=O)CNc1ccccc1CNS(C)(=O)=O)[C@H](CN1CC[C@H](O)C1)c1ccccc1", "Ratio": 85},
      {"molecule": "CCCS(=O)(=O)Nc1ccc(NCC(=O)N(C)[C@H](CN2CC[C@H](O)C2)c2ccccc2)cc1", "Ratio": 1000},
      {"molecule": "CC(=O)N(CC(=O)N(C)[C@H](CN1CC[C@H](O)C1)c1ccccc1)c1ccccc1", "Ratio": "> 1320"},
      {"molecule": "CN(C(=O)CNc1ccc(NS(C)(=O)=O)cc1)[C@H](CN1CC[C@H](O)C1)c1ccccc1", "Ratio": "> 877"},
      {"molecule": "CN(C(=O)CNc1cccc(CNS(C)(=O)=O)c1)[C@H](CN1CC[C@H](O)C1)c1ccccc1", "Ratio": 38},
      {"molecule": "CN(C(=O)CNc1ccc([N+](=O)[O-])cc1)[C@H](CN1CC[C@H](O)C1)c1ccccc1", "Ratio": 905},
      {"molecule": "CN(C(=O)CNc1ccc(C#N)cc1)[C@H](CN1CC[C@H](O)C1)c1ccccc1", "Ratio": 833},
      {"molecule": "CN(CC(=O)N(C)[C@H](CN1CC[C@H](O)C1)c1ccccc1)c1ccc(C#N)cc1", "Ratio": 250},
      {"molecule": "CN(CC(=O)N(C)[C@H](CN1CC[C@H](O)C1)c1ccccc1)c1ccccc1", "Ratio": 1660},
      {"molecule": "CN(C(=O)CNc1ccc(C(F)(F)F)cc1)[C@H](CN1CC[C@H](O)C1)c1ccccc1", "Ratio": 385}
    ]},
    {"target": "Opioid receptors; delta & kappa (Homo sapiens) (UniProt P41145+P41143)", "sequence (P41143 whole entry, looked up)": "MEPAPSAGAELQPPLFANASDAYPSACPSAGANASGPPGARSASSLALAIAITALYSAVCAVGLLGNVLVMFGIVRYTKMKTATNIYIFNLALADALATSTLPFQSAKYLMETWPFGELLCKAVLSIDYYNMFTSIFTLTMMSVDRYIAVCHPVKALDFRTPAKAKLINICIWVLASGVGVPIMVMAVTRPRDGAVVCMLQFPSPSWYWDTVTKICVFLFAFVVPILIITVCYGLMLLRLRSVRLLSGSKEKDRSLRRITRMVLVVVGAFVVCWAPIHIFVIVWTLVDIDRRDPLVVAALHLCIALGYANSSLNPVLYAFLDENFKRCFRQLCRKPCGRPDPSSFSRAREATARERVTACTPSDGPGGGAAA", "sequence (P41145 whole entry, looked up)": "as the sequence (P41145 whole entry) above", "experiment": "Selectivity for kappa opioid receptor over delta opioid receptor", "format": "protein assay", "values": [
      {"molecule": "CN(C(=O)CNc1ccc(CNS(C)(=O)=O)cc1)[C@H](CN1CC[C@H](O)C1)c1ccccc1", "Ratio": 119},
      {"molecule": "CN(C(=O)CNc1ccccc1)[C@H](CN1CC[C@H](O)C1)c1ccccc1", "Ratio": 512},
      {"molecule": "CN(C(=O)CNc1cccc(C#N)c1)[C@H](CN1CC[C@H](O)C1)c1ccccc1", "Ratio": 66},
      {"molecule": "CN(C(=O)CNc1ccccc1C#N)[C@H](CN1CC[C@H](O)C1)c1ccccc1", "Ratio": 49},
      {"molecule": "CN(C(=O)CNc1ccc(Cl)c(Cl)c1)[C@H](CN1CC[C@H](O)C1)c1ccccc1", "Ratio": 91},
      {"molecule": "CN(C(=O)CNc1ccccc1CNS(C)(=O)=O)[C@H](CN1CC[C@H](O)C1)c1ccccc1", "Ratio": 10},
      {"molecule": "CCCS(=O)(=O)Nc1ccc(NCC(=O)N(C)[C@H](CN2CC[C@H](O)C2)c2ccccc2)cc1", "Ratio": 87},
      {"molecule": "CC(=O)N(CC(=O)N(C)[C@H](CN1CC[C@H](O)C1)c1ccccc1)c1ccccc1", "Ratio": 342},
      {"molecule": "CN(C(=O)CNc1ccc(NS(C)(=O)=O)cc1)[C@H](CN1CC[C@H](O)C1)c1ccccc1", "Ratio": 47},
      {"molecule": "CN(C(=O)CNc1cccc(CNS(C)(=O)=O)c1)[C@H](CN1CC[C@H](O)C1)c1ccccc1", "Ratio": 38},
      {"molecule": "CN(C(=O)CNc1ccc([N+](=O)[O-])cc1)[C@H](CN1CC[C@H](O)C1)c1ccccc1", "Ratio": 119},
      {"molecule": "CN(C(=O)CNc1ccc(C#N)cc1)[C@H](CN1CC[C@H](O)C1)c1ccccc1", "Ratio": 409},
      {"molecule": "CN(CC(=O)N(C)[C@H](CN1CC[C@H](O)C1)c1ccccc1)c1ccc(C#N)cc1", "Ratio": 180},
      {"molecule": "CN(CC(=O)N(C)[C@H](CN1CC[C@H](O)C1)c1ccccc1)c1ccccc1", "Ratio": 169},
      {"molecule": "CN(C(=O)CNc1ccc(C(F)(F)F)cc1)[C@H](CN1CC[C@H](O)C1)c1ccccc1", "Ratio": 256}
    ]},
    {"target": "Cytochrome P450 2D6 (Homo sapiens, UniProt P10635)", "sequence (P10635 whole entry)": "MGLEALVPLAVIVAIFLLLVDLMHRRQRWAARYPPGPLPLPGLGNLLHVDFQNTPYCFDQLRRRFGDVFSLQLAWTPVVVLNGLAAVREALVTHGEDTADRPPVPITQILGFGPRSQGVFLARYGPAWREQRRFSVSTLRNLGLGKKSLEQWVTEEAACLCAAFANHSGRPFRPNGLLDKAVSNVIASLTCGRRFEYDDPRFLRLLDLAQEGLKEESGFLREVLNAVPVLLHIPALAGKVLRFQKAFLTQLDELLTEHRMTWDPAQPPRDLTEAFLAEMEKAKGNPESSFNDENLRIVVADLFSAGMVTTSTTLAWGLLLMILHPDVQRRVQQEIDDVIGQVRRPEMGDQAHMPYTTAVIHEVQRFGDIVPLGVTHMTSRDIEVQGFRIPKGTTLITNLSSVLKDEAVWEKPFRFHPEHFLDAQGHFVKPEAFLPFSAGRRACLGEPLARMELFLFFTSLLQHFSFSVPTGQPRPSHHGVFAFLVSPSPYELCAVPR", "experiment": "Inhibitory activity against CYP2D6", "format": "ADME", "units": {"IC50": "nM"}, "values": [
      {"molecule": "CN(C(=O)CNc1ccc(CNS(C)(=O)=O)cc1)[C@H](CN1CC[C@H](O)C1)c1ccccc1", "IC50": 8000},
      {"molecule": "CN(C(=O)CNc1ccccc1)[C@H](CN1CC[C@H](O)C1)c1ccccc1", "IC50": 4100},
      {"molecule": "CN(C(=O)CNc1cccc(C#N)c1)[C@H](CN1CC[C@H](O)C1)c1ccccc1", "IC50": 3000},
      {"molecule": "CN(C(=O)CNc1ccccc1C#N)[C@H](CN1CC[C@H](O)C1)c1ccccc1", "IC50": 510},
      {"molecule": "CN(C(=O)CNc1ccc(Cl)c(Cl)c1)[C@H](CN1CC[C@H](O)C1)c1ccccc1", "IC50": 760},
      {"molecule": "CN(C(=O)CNc1ccccc1CNS(C)(=O)=O)[C@H](CN1CC[C@H](O)C1)c1ccccc1", "IC50": 1500},
      {"molecule": "CCCS(=O)(=O)Nc1ccc(NCC(=O)N(C)[C@H](CN2CC[C@H](O)C2)c2ccccc2)cc1", "IC50": 9000},
      {"molecule": "CC(=O)N(CC(=O)N(C)[C@H](CN1CC[C@H](O)C1)c1ccccc1)c1ccccc1", "IC50": 300},
      {"molecule": "CN(C(=O)CNc1cccc(CNS(C)(=O)=O)c1)[C@H](CN1CC[C@H](O)C1)c1ccccc1", "IC50": 8700},
      {"molecule": "CN(C(=O)CNc1ccc([N+](=O)[O-])cc1)[C@H](CN1CC[C@H](O)C1)c1ccccc1", "IC50": 3400},
      {"molecule": "CN(C(=O)CNc1ccc(C#N)cc1)[C@H](CN1CC[C@H](O)C1)c1ccccc1", "IC50": 2500},
      {"molecule": "CN(CC(=O)N(C)[C@H](CN1CC[C@H](O)C1)c1ccccc1)c1ccc(C#N)cc1", "IC50": 670},
      {"molecule": "CN(CC(=O)N(C)[C@H](CN1CC[C@H](O)C1)c1ccccc1)c1ccccc1", "IC50": 530},
      {"molecule": "CN(C(=O)CNc1ccc(C(F)(F)F)cc1)[C@H](CN1CC[C@H](O)C1)c1ccccc1", "IC50": 190}
    ]},
    {"target": "Mu-type opioid receptor (Homo sapiens, UniProt P35372)", "sequence (P35372 whole entry)": "as the sequence (P35372 whole entry, looked up) above", "experiment": "Binding affinity to mu opioid receptor", "units": {"Ki": "nM"}, "values": [
      {"molecule": "CC(=O)N(CC(=O)N(C)[C@H](CN1CC[C@H](O)C1)c1ccccc1)c1ccccc1", "Ki": "> 5000"},
      {"molecule": "CN(C(=O)CNc1ccc(NS(C)(=O)=O)cc1)[C@H](CN1CC[C@H](O)C1)c1ccccc1", "Ki": "> 5000"}
    ]}
  ]
}
